The text below walks through data of patent publication US10513680B2, “Green microalgae lacking a functional DYRKP-1 gene, for use for increased production of feedstock” (COMMISSARIAT A L'ENERGIE ATOMIQUE ET AUX ENERGIES …, priority 2014, dated 2019).

Assay [1] concerns std1 mutant. Nature of the assay: Inhibition of TAG and starch accumulation by LOX inhibitor in std1 mutant under nitrogen starvation. It is filed as cell-based, Chlamydomonas reinhardtii. The following applies: 5 mM catechol, after 6-day under nitrogen starvation (FIG. 14). How it is done:
FIGS. 14A and 14B depict the inhibition of TAG and starch accumulation in the mutant by LOX inhibitors.
FIG. 14A depicts starch accumulation.
FIG. 14B depicts TAG accumulation.
The starch and chlorophyll contents were measured according to (Chochois et al., 2010). One mL of culture was harvested, centrifuged at ˜20,000 g for 10 min, resuspended in 1 mL of methyl alcohol for chlorophyll extraction and stored at −80° C. The pellets were dried, and 400 μL of water were added. To solubilize starch, the samples were autoclaved setting “dry cycle”. Subsequently, starch was degraded to glucose by adding 200 μL amyloglucosidase solution (1 U/mL, Roche) and incubation at 55° C. for 1-2 h. Using an automated sugar analyzer (Ysi model 2700 select, Yellow Springs, Ohio, USA), glucose concentration were determined. Chlorophyll was extracted by methanol, and chlorophyll a and b were determined by measuring the absorbance at 653, 666 and 750 nm using UV-VIS spectrophotometer (SAFAS UVmc2 with the software SP2000).
C. reinhardtii cells (eq. to 2 mm^3 total cellular volume) were harvested by centrifuge at 1000 g for 2 min (at 4° C.). The cells were either frozen right away under −80° C., or quenched in hot isopropanol for immediate lipid extractions. Total cellular lipids were extracted using a mixture of hexane and isopropanol (Li-Beisson et al., 2010). […]

The test system of assay [2] is WT strains. Nature of the assay: Inhibition of TAG and starch accumulation by LOX inhibitor in WT strains under nitrogen starvation. The format is cell-based, Chlamydomonas reinhardtii. The following applies: in response to nitrogen starvation.

SMILES strings stand for the structures.

`Oc1ccccc1O` [catechol]: in assay [1], the TAG accumulation entry was “inhibited” and the starch accumulation result is on record as “inhibited”. Also, in assay [2], the TAG accumulation entry was “inhibited” and the starch accumulation entry is given as “no effect”.
